The source of these data is patent US11739305B2, “Sialyltransferase variants having neosialidase activity” (The Regents of the University of California, priority 2017, dated 2023).

The experiment deals with T1, Pd2,6ST S232L/T356S/W361F (Photobacterium damselae, UniProt O66375, S232L/T356S/W361F).
T1 construct: (Δ15Pd2, 6ST); His6 tag with thrombin site ([…]) (N); made in house; host or cells: E. coli BL21(DE3)
The experiment can be described thus: Linkage specificity assays (relative sialidase activity towards sialosides, HPLC). The experiment is classed as biochemical. The conditions noted are these: for Relative sialidase activity: of Pd2,6ST S232L/T356S/W361F towards the sialoside, 1 mM substrate, 0.5 mM CMP, pH 6.0, 37° C., 30 minutes, relative to compound 2. As for the experimental part: Reactions were performed in duplicate at 37° C. for 30 minutes in MES buffer (100 mM, pH 6.0), MgCl2 (10 mM), CMP (0.5 mM), and 1 mM substrate. Enzyme concentrations were 0.030 μM for 2, 0.30 μM for 7, 3.0 μM 6, and 30.0 μM for 3-5. These conditions provided testing at initial rates (1.2-24% yield) for each substrate. Reactions were stopped by adding an equal volume of pre-chilled methanol. The mixtures were incubated on ice for 30 minutes and centrifuged at 13,000 rpm for 5 minutes. Supernatants were analyzed with an Infinity 1290-II HPLC equipped with a UV-Vis detector (Agilent Technologies, CA). The HPLC procedure utilized a ZORBAX Eclipse Plus C18 Rapid Resolution HD 1.8 μm particle 2.1×50 mm column (Agilent Technologies, CA), an isocratic flow of 1 mL min′ for a 9% acetonitrile and 91% aqueous solution containing 0.1% TFA, and an injection volume of 2 μL. The para-nitrophenyl absorbance signal was monitored at 315 nm.

Where [1] appears, read: cleavage by Pd2,6ST S232L/T356S/W361F.

`CC(=O)NC1C(Oc2ccc([N+](=O)[O-])cc2)OC(COC2(C(=O)O)CC(O)C(NC(C)=O)C(C(O)C(O)CO)O2)C(O)C1O` (stereo not shown) [Compound 7, Neu5Acα2-6GalNAcβpNP] yielded a Relative sialidase activity of 1.9. Besides, the “neosialidase activity toward the sialoside, in words” value under setting [1] was “higher”.

Take `O=C(CO)NC1C(O)CC(OCC2OC(Oc3ccc([N+](=O)[O-])cc3)C(O)C(O)C2O)(C(=O)O)OC1C(O)C(O)CO` (stereo not shown) [Compound 6, Neu5Gcα2-6GalβpNP]: the Relative sialidase activity is on record as 1.2 × 10^−1. The “cleavage rate as percent of the rate of Neu5Acα2-6GalβpNP (2)” value under setting [1] is “approximately 12%”.

As to `CC(=O)NC1C(O)CC(OC(CO)C(O)C2OC(OC3C(O)C(CO)OC(Oc4ccc([N+](=O)[O-])cc4)C3O)(C(=O)O)CC(O)C2NC(C)=O)(C(=O)O)OC1C(O)C(O)CO` (stereo not shown) [Compound 4, Neu5Acα2-8Neu5Acα2-3GalβpNP], the Relative sialidase activity is listed as 3.3 × 10^−3. The “neosialidase activity toward the sialoside, in words” value under setting [1] is “not detected”.

For `O=C(O)C1(OCC2OC(Oc3ccc([N+](=O)[O-])cc3)C(O)C(O)C2O)CC(O)C(O)C(C(O)C(O)CO)O1` (stereo not shown) [Compound 5, Kdnα2-6GalβpNP], the Relative sialidase activity is recorded as 9.8 × 10^−4. In addition, under setting [1], the “cleavage rate as percent of the rate of Neu5Acα2-6GalβpNP (2)” value was found to be 0.1% and the “neosialidase activity toward the sialoside, in words” value is listed as “not a suitable substrate”.

As to `CC(=O)N[C@H]1[C@H]([C@H](O)[C@H](O)CO)OC(O[C@H]2[C@@H](O)[C@@H](CO)O[C@@H](Oc3ccc([N+](=O)[O-])cc3)[C@@H]2O)(C(=O)O)C[C@@H]1O` (stereo partly shown) [Compound 3, Neu5Acα2-3GalβpNP], the Relative sialidase activity is listed as 2.5 × 10^−3. For the same compound, under setting [1], the “activity lower than toward Neu5Acα2-6GalβpNP (2)” value is given as roughly 400 fold.

The compound `CC(=O)N[C@H]1[C@H]([C@H](O)[C@H](O)CO)OC(OC[C@H]2O[C@@H](Oc3ccc([N+](=O)[O-])cc3)[C@H](O)[C@@H](O)[C@H]2O)(C(=O)O)C[C@@H]1O` (stereo partly shown) [Compound 2, Neu5Acα2-6GalβpNP] registered a Relative sialidase activity of 1.0. The “neosialidase activity toward the sialoside, in words” value under setting [1] is on record as “suitable substrate”.
